{"source": "patent US8501752B2", "about": "“Methods for treating cancer and other pathological proliferating disorders by inhibiting mitosis using pyrrolo[2,3-d]pyrimidines” (Duquesne University of the Holy Ghost, priority 2005, dated 2013)", "key": {"[1]": {"system": "NCI-H23", "assay": "NCI IVCLSP growth inhibition (SRB), NCI-H23", "type": "cell-based, human", "conditions": "48 h drug incubation", "protocol": "(§1) FIG. 1 presents nine compounds that were tested using the National Cancer Institute (NCI) 60 human tumor cell lines. The cells lines, which represent leukemia, melanoma, and cancers of the lung, colon, brain, ovary, breast, prostate, and kidney, are listed in Table 1.\n(§2) Compounds 1-9 were tested according to the NCI Developmental Therapeutics Program (DTP) In Vitro Cell Line Screening Project (IVCLSP). […] Methodology for testing under the IVCLSP is as follows: The human tumor cell lines of the cancer screening panel are grown in RPMI 1640 medium containing 5% fetal bovine serum and 2 mM L-glutamine. […]\n(§3) Following drug addition, the plates are incubated for an additional 48 h at 37° C., 5% CO2, 95% air, and 100% relative humidity. […] Bound stain is subsequently solubilized with 10 mM trizma base, and the absorbance is read on an automated plate reader at a wavelength of 515 nm. […] Using the seven absorbance measurements [time zero, (Tz), control growth, (C), and test growth in the presence of drug at the five concentration levels (Ti)], the percentage growth is calculated at each of the drug concentrations levels. Percentage growth inhibition is calculated as: [(Ti−Tz)/(C−Tz)]×100 for concentrations for which Ti>/=Tz [(Ti−Tz)/Tz]×100 for concentrations for which Ti<Tz.\n(§4) Three dose response parameters are calculated for each experimental agent. […]"}, "[2]": {"system": "SNB-75", "assay": "NCI IVCLSP growth inhibition (SRB), SNB-75", "type": "cell-based, human", "conditions": "48 h drug incubation", "protocol": "as §1, §2, §3, §4"}, "[3]": {"system": "786-0", "assay": "NCI IVCLSP growth inhibition (SRB), 786-0", "type": "cell-based, human", "conditions": "48 h drug incubation", "protocol": "as §1, §2, §3, §4"}, "[4]": {"system": "CCRF-CEM", "assay": "NCI IVCLSP growth inhibition (SRB), CCRF-CEM", "type": "cell-based, human", "conditions": "48 h drug incubation", "protocol": "as §1, §2, §3, §4"}, "[5]": {"system": "T24, MCF-7, NCI/ADR, MCF-7/VP", "assay": "Cytotoxicity, panel of human tumor cell lines of Table 3 (text summaries)", "excerpt": "(§5) These cell lines are resistant to anticancer drugs due to overexpression of the transport proteins P-glycoprotein or MRP1."}, "[6]": {"system": "PC-3", "assay": "NCI IVCLSP growth inhibition (SRB), PC-3", "type": "cell-based, human", "conditions": "48 h drug incubation", "protocol": "as §1, §2, §3, §4"}, "[7]": {"system": "HCC-2998", "assay": "NCI IVCLSP growth inhibition (SRB), HCC-2998", "type": "cell-based, human", "conditions": "48 h drug incubation", "protocol": "as §1, §2, §3, §4"}, "[8]": {"system": "MCF-7/VP cells", "assay": "Cytotoxicity, MCF-7/VP cells that overexpress MRP1", "conditions": "for IC50: mean ± SEM for 3 experiments", "excerpt": "as §5"}, "[9]": {"system": "OVCAR-5", "assay": "NCI IVCLSP growth inhibition (SRB), OVCAR-5", "type": "cell-based, human", "conditions": "48 h drug incubation", "protocol": "as §1, §2, §3, §4"}, "[10]": {"system": "NCI/ADR-RES", "assay": "NCI IVCLSP growth inhibition (SRB), NCI/ADR-RES", "type": "cell-based, human", "conditions": "48 h drug incubation", "protocol": "as §1, §2, §3, §4"}, "[11]": {"molecular_target": "T1, P-glycoprotein (Homo sapiens, UniProt P08183)", "T1 construct": "NCI/ADR cells that overexpress P-glycoprotein; endogenous in cells; host or cells: NCI/ADR cells", "T1 sequence (P08183 whole entry)": "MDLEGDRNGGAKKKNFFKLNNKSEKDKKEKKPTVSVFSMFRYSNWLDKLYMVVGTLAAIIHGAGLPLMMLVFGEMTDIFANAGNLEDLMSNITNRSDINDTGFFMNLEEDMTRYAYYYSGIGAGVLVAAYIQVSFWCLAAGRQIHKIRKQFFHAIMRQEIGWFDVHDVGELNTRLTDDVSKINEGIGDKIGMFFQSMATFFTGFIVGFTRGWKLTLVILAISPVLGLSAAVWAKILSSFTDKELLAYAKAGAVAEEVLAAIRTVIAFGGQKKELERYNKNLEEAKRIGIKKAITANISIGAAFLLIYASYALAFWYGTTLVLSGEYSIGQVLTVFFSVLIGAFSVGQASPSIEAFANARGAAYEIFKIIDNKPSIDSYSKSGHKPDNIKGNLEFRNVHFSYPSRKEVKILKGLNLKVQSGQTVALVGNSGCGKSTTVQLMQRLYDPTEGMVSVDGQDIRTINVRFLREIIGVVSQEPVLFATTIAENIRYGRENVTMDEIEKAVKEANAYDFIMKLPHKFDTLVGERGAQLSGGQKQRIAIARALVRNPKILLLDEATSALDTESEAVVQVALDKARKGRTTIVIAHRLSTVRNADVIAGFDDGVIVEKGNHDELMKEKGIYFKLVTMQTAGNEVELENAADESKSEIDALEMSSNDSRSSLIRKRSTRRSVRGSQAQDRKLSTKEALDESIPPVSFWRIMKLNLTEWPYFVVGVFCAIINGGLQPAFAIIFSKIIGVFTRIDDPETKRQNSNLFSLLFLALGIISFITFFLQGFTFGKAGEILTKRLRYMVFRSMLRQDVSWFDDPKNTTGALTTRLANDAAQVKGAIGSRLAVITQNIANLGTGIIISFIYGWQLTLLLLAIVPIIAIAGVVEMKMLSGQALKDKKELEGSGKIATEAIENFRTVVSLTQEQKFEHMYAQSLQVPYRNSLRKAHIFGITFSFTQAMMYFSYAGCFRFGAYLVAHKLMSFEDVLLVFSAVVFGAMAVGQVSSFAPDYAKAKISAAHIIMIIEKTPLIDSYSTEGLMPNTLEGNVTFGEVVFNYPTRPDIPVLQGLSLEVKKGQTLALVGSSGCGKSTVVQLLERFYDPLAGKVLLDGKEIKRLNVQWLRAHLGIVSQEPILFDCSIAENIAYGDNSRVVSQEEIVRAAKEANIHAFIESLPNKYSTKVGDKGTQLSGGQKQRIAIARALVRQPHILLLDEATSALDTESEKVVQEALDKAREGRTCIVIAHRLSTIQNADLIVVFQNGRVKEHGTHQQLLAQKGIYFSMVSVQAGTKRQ", "assay": "P-glycoprotein antagonism: sensitivity of NCI/ADR cells to vinblastine", "type": "cell-based", "conditions": "absence or presence of 50 nM vinblastine", "source_text": "To determine if this is due to inhibition of drug transport activity by these proteins, the effects of these compounds on P-glycoprotein were further characterized. The effects of the compounds on the sensitivity of NCI/ADR cells to vinblastine and of MCF-7/VP cells to vincristine were examined to evaluate antagonism of P-glycoprotein and MRP1, respectively. FIGS. 4a-b present graphs of antagonism score versus concentration for P-glycoprotein and MRP1, respectively.\nThe Pgp antagonism score is calculated as the percentage survival of cells in the absence of vinblastine/percentage survival in the presence of vinblastine. […] The MRP1 antagonism score is calculated as the percentage survival of cells in the absence of vincristine/percentage survival in the presence of vincristine. […] Concentrations of Compounds 1-5 above their IC50 toward MCF-7 cells are not indicated. Data for one of three similar experiments is shown."}, "[12]": {"system": "EKVX", "assay": "NCI IVCLSP growth inhibition (SRB), EKVX", "type": "cell-based, human", "conditions": "48 h drug incubation", "protocol": "as §1, §2, §3, §4"}, "[13]": {"system": "UACC-62", "assay": "NCI IVCLSP growth inhibition (SRB), UACC-62", "type": "cell-based, human", "conditions": "48 h drug incubation", "protocol": "as §1, §2, §3, §4"}, "[14]": {"system": "SK-MEL-5", "assay": "NCI IVCLSP growth inhibition (SRB), SK-MEL-5", "type": "cell-based, human", "conditions": "48 h drug incubation", "protocol": "as §1, §2, §3, §4"}, "[15]": {"system": "MALME-3M", "assay": "NCI IVCLSP growth inhibition (SRB), MALME-3M", "type": "cell-based, human", "conditions": "48 h drug incubation", "protocol": "as §1, §2, §3, §4"}, "[16]": {"system": "NCI-H522", "assay": "NCI IVCLSP growth inhibition (SRB), NCI-H522", "type": "cell-based, human", "conditions": "48 h drug incubation", "protocol": "as §1, §2, §3, §4"}, "[17]": {"system": "OVCAR-8", "assay": "NCI IVCLSP growth inhibition (SRB), OVCAR-8", "type": "cell-based, human", "conditions": "48 h drug incubation", "protocol": "as §1, §2, §3, §4"}}, "note": "Where two headings read alike, the source gives them in different places.", "data": [{"smiles": "COc1cc(CCc2cn(Cc3ccccc3)c3nc(N)nc(C)c23)cc(OC)c1OC", "note": "[Compound 1]", "values": [{"measurement": "GI50", "setting": "[1]", "value": 0.278, "unit": "µM"}, {"measurement": "GI50", "setting": "[2]", "value": 0.358, "unit": "µM"}, {"measurement": "GI50", "setting": "[3]", "value": 0.254, "unit": "µM"}, {"measurement": "GI50", "setting": "[4]", "value": 0.058, "unit": "µM"}, {"measurement": "cytotoxic potency, better than Compound 4 (2-OMe)", "setting": "[5]", "value": 10, "unit": "fold"}, {"measurement": "effect of P-glycoprotein / MRP1 overexpression on cell sensitivity (in words)", "setting": "[5]", "value": "neither P-glycoprotein nor MRP1 affect cell sensitivity"}, {"measurement": "cytotoxic potency (in words)", "setting": "[5]; all tested cell lines", "value": "Submicromolar cytotoxic potency"}, {"measurement": "GI50", "setting": "[6]", "value": 0.0479, "unit": "µM"}, {"measurement": "GI50", "setting": "[7]", "value": 0.317, "unit": "µM"}, {"measurement": "Resistance (MCF-7/VP relative to MCF-7)", "setting": "[8]; MRP1", "value": 0.6}, {"measurement": "IC50", "setting": "[8]; read-out: Cytotoxicity IC50, MCF-7/VP", "value": "0.25 ± 0.16", "unit": "µM"}, {"measurement": "IC50", "setting": "[8]; read-out: drug sensitivity (IC50), MCF-7/VP, Table 4, MRP1 overexpressing", "value": "0.18 ± 0.01", "unit": "µM"}, {"measurement": "GI50", "setting": "[9]", "value": "> 1", "unit": "µM"}, {"measurement": "GI50", "setting": "[10]", "value": 0.145, "unit": "µM"}, {"measurement": "effect on P-glycoprotein-mediated resistance (in words)", "setting": "[11]", "value": "no affect on P-glycoprotein at doses below its IC50"}, {"measurement": "GI50", "setting": "[12]", "value": 0.424, "unit": "µM"}, {"measurement": "GI50", "setting": "[13]", "value": 0.0399, "unit": "µM"}, {"measurement": "GI50", "setting": "[14]", "value": 0.0611, "unit": "µM"}, {"measurement": "GI50", "setting": "[15]", "value": 0.283, "unit": "µM"}, {"measurement": "GI50", "setting": "[16]", "value": 0.0477, "unit": "µM"}, {"measurement": "GI50", "setting": "[17]", "value": 0.364, "unit": "µM"}]}]}
